# Results as given in patent publication US12077503B2, “Substituted cyclic amides and their use as herbicides” (FMC CORPORATION, priority 2015, dated 2024).
# Assays:
# Assay type in all cases: in vivo
# [1] = system: giant foxtail (Setaria faberii); experiment: Test A postemergence; conditions: Setaria faberi, post-emergence, 240 h
# In short: (§1)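 Seeds sprayed preemergence with a directed soil spray, or plants at 2 to 10 cm height and one- to two-leaf stage sprayed postemergence, with test chemicals in a non-phytotoxic solvent mixture containing surfactant, in loam soil–sand blend. Injury rated visually against untreated controls after about 10 d in greenhouse, 0 (no effect) to 100 (complete control).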
# [2] = system: ragweed (common ragweed, Ambrosia elatior); experiment: Test A postemergence; conditions: Ambrosia artemisiifolia, post-emergence, 240 h
# In short: as §1
# [3] = system: wheat (Triticum aestivum); experiment: Test A postemergence; conditions: Triticum aestivum, post-emergence, 240 h
# In short: as §1
# [4] = system: corn (Zea mays); experiment: Test A postemergence; conditions: Zea mays, post-emergence, 240 h
# In short: as §1
# [5] = system: blackgrass (Alopecurus myosuroides); experiment: Test A postemergence; conditions: Alopecurus myosuroides, post-emergence, 240 h
# In short: as §1
# [6] = system: Kochia (Kochia scoparia); experiment: Test A postemergence; conditions: Bassia scoparia, post-emergence, 240 h, Postemergence, 31 g ai/ha; visual injury after approx. 10 d; 0 to 100 scale, 0 no effect, 100 complete control; read-out: Plant response rating, Kochia
# In short: as §1
# [7] = system: barnyardgrass (Echinochloa crus-galli); experiment: Test A postemergence; conditions: Echinochloa crus-galli, post-emergence, 240 h
# In short: as §1
# [8] = system: ryegrass, Italian (Italian ryegrass, Lolium multiflorum); experiment: Test A postemergence; conditions: Lolium multiflorum, post-emergence, 240 h
# In short: as §1
# [9] = system: Galium (catchweed bedstraw, Galium aparine); experiment: Test A postemergence; conditions: Galium, post-emergence, 240 h
# In short: as §1
# [10] = system: pigweed (Amaranthus retroflexus); experiment: Test A postemergence; conditions: Amaranthus retroflexus, post-emergence, 240 h
# In short: as §1
# [11] = system: giant foxtail (Setaria faberii); experiment: Test A preemergence; conditions: Setaria faberi, pre-emergence, 240 h, 0 to 100 scale where 0 is no effect and 100 is complete control, read-out: Foxtail, Giant plant response rating
# In short: as §1
# [12] = system: ragweed (common ragweed, Ambrosia elatior); experiment: Test A preemergence; conditions: Ambrosia artemisiifolia, pre-emergence, 240 h, 0 to 100 scale where 0 is no effect and 100 is complete control, read-out: Ragweed plant response rating
# In short: as §1
# [13] = system: Kochia (Kochia scoparia); experiment: Test A preemergence; conditions: Bassia scoparia, pre-emergence, 240 h, 31 g ai/ha, Preemergence; 0 to 100 scale where 0 is no effect and 100 is complete control; read-out: Kochia plant response rating
# In short: as §1
# [14] = system: barnyardgrass (Echinochloa crus-galli); experiment: Test A preemergence; conditions: Echinochloa crus-galli, pre-emergence, 240 h, 0 to 100 scale where 0 is no effect and 100 is complete control, read-out: Barnyardgrass plant response rating
# In short: as §1
# [15] = system: ryegrass, Italian (Italian ryegrass, Lolium multiflorum); experiment: Test A preemergence; conditions: Lolium multiflorum, pre-emergence, 240 h, 0 to 100 scale where 0 is no effect and 100 is complete control, read-out: Ryegrass, Italian plant response rating
# In short: as §1
# [16] = system: pigweed (Amaranthus retroflexus); experiment: Test A preemergence; conditions: Amaranthus retroflexus, pre-emergence, 240 h, 0 to 100 scale where 0 is no effect and 100 is complete control, read-out: Pigweed plant response rating
# [17] = system: ducksalad (Heteranthera limosa); experiment: Test B flooded paddy test; conditions: Heteranthera limosa, 250 g ai/ha, Flood; 0 to 100 scale where 0 is no effect and 100 is complete control; read-out: Ducksalad plant response rating
# In short: (§2)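 Evaluation by eye, against controls, occurred 13–15 d post-treatment in a greenhouse, using a 0 (no effect) to 100 (complete control) scale. Application was into the paddy water, 3 cm deep over the soil, on 2-leaf plants.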
# [18] = system: barnyardgrass (Echinochloa crus-galli); experiment: Test B flooded paddy test; conditions: Echinochloa crus-galli, 250 g ai/ha, Flood; 0 to 100 scale where 0 is no effect and 100 is complete control; read-out: Barnyardgrass plant response rating
# In short: as §2
# [19] = system: rice (Oryra sativa); experiment: Test B flooded paddy test; conditions: Oryza sativa, 250 g ai/ha, Flood; 0 to 100 scale where 0 is no effect and 100 is complete control; read-out: Rice plant response rating
# In short: as §2
# [20] = system: sedge, umbrella (small-flower umbrella sedge, Cyperus difformis); experiment: Test B flooded paddy test; conditions: Cyperus difformis, 250 g ai/ha, Flood; 0 to 100 scale where 0 is no effect and 100 is complete control; read-out: Sedge, Umbrella plant response rating
# In short: as §2
# [21] = 125 g ai/ha, preemergence, approx. 10 d
structure (smiles),measurement,setting,value
Cc1cc([C@H]2CN(C)C(=O)[C@@H]2C(=O)Nc2ccccc2C(F)(F)F)ccc1Br [Compound 1103],pest or weed control at 125 g/ha,"[1]; 125 g ai/ha, postemergence, visual injury on 0 to 100 scale (0 no effect, 100 complete control), approx. 10 d, read-out: Foxtail, Giant plant response rating",80%
same,pest or weed control at 31 g/ha,"[1]; Postemergence, 31 g ai/ha, visual injury after approx. 10 d, 0 to 100 scale, 0 no effect, 100 complete control, read-out: Plant response rating, Foxtail, Giant",50%
same,pest or weed control at 125 g/ha,"[2]; 125 g ai/ha, postemergence, visual injury on 0 to 100 scale (0 no effect, 100 complete control), approx. 10 d, read-out: Ragweed plant response rating",30%
same,pest or weed control at 31 g/ha,"[2]; Postemergence, 31 g ai/ha, visual injury after approx. 10 d, 0 to 100 scale, 0 no effect, 100 complete control, read-out: Plant response rating, Ragweed",0%
same,plant injury at 125 g/ha,"[3]; 125 g ai/ha, postemergence, visual injury on 0 to 100 scale (0 no effect, 100 complete control), approx. 10 d, read-out: Wheat plant response rating",20%
same,plant injury at 31 g/ha,"[3]; Postemergence, 31 g ai/ha, visual injury after approx. 10 d, 0 to 100 scale, 0 no effect, 100 complete control, read-out: Plant response rating, Wheat",0%
same,plant injury at 125 g/ha,"[4]; 125 g ai/ha, postemergence, visual injury on 0 to 100 scale (0 no effect, 100 complete control), approx. 10 d, read-out: Corn plant response rating",0%
same,"Corn plant response rating (crop injury, 0 = no effect, 100 = complete kill) at 31 g/ha","[4]; Postemergence, 31 g ai/ha, visual injury after approx. 10 d, 0 to 100 scale, 0 no effect, 100 complete control",0%
same,pest or weed control at 125 g/ha,"[5]; 125 g ai/ha, postemergence, visual injury on 0 to 100 scale (0 no effect, 100 complete control), approx. 10 d, read-out: Blackgrass plant response rating",30%
same,pest or weed control at 31 g/ha,"[5]; Postemergence, 31 g ai/ha, visual injury after approx. 10 d, 0 to 100 scale, 0 no effect, 100 complete control, read-out: Plant response rating, Blackgrass",20%
same,pest or weed control at 31 g/ha,[6],0%
same,pest or weed control at 125 g/ha,"[7]; 125 g ai/ha, postemergence, visual injury on 0 to 100 scale (0 no effect, 100 complete control), approx. 10 d, read-out: Barnyardgrass plant response rating",70%
same,pest or weed control at 31 g/ha,"[7]; Postemergence, 31 g ai/ha, visual injury after approx. 10 d, 0 to 100 scale, 0 no effect, 100 complete control, read-out: Plant response rating, Barnyardgrass",40%
same,pest or weed control at 125 g/ha,"[8]; 125 g ai/ha, postemergence, visual injury on 0 to 100 scale (0 no effect, 100 complete control), approx. 10 d, read-out: Ryegrass, Italian plant response rating",20%
same,pest or weed control at 31 g/ha,"[8]; Postemergence, 31 g ai/ha, visual injury after approx. 10 d, 0 to 100 scale, 0 no effect, 100 complete control, read-out: Plant response rating, Ryegrass, Italian",0%
same,pest or weed control at 125 g/ha,"[9]; 125 g ai/ha, postemergence, visual injury on 0 to 100 scale (0 no effect, 100 complete control), approx. 10 d, read-out: Galium plant response rating",50%
same,pest or weed control at 31 g/ha,"[9]; Postemergence, 31 g ai/ha, visual injury after approx. 10 d, 0 to 100 scale, 0 no effect, 100 complete control, read-out: Plant response rating, Galium",30%
same,pest or weed control at 125 g/ha,"[10]; 125 g ai/ha, postemergence, visual injury on 0 to 100 scale (0 no effect, 100 complete control), approx. 10 d, read-out: Pigweed plant response rating",0%
same,pest or weed control at 31 g/ha,"[10]; Postemergence, 31 g ai/ha, visual injury after approx. 10 d, 0 to 100 scale, 0 no effect, 100 complete control, read-out: Plant response rating, Pigweed",0%
same,pest or weed control at 31 g/ha,"[11]; 31 g ai/ha, Preemergence",70%
same,pest or weed control at 125 g/ha,[11]; [21],90%
same,pest or weed control at 31 g/ha,"[12]; 31 g ai/ha, Preemergence",0%
same,pest or weed control at 125 g/ha,[12]; [21],20%
same,pest or weed control at 31 g/ha,[13],0%
same,pest or weed control at 31 g/ha,"[14]; 31 g ai/ha, Preemergence",20%
same,pest or weed control at 125 g/ha,[14]; [21],70%
same,pest or weed control at 31 g/ha,"[15]; 31 g ai/ha, Preemergence",0%
same,pest or weed control at 125 g/ha,[15]; [21],0%
same,pest or weed control at 31 g/ha,"[16]; 31 g ai/ha, Preemergence",0%
same,pest or weed control at 125 g/ha,[16]; [21],0%
same,pest or weed control at 250 g/ha,[17],90%
same,pest or weed control at 250 g/ha,[18],75%
same,pest or weed control at 250 g/ha,[19],25%
same,pest or weed control at 250 g/ha,[20],0%
